Source: PMC9691367, “The PROTAC selectively degrading Bcl-xL represents a novel Hedgehog pathway inhibitor with capacity of combating resistance to Smoothened inhibitors while sparing bone growth” (Theranostics, 2022)

How the values were obtained:
Bcl-xL/CRBN = molecular target: T1, Bcl-xL/CRBN (Homo sapiens, UniProt Q07817+Q96SW2); assay: HTRF assay for ternary complex formation; format: binding
T1 construct: purchased Cisbio 63ADK000CB37PEG
Protocol: Bcl-xL/CRBN ternary HTRF assay was used to monitor ternary complex formation between target protein, PROTAC and E3 ligase. Bcl-xL/CRBN PROTAC BINDING ASSAY KITS was purchased from Cisbio (#63ADK000CB37PEG). 200 nL compounds were transferred into 384 assay plate, followed by centrifuging at 1000 RPM. Then 5 µL Bcl-xL and CRBN protein were added into each assay well. After incubation at 25 °C for 15 min, 10 µL Tag2-Eu&Tag1-d2 working solution was added into each assay well and incubated 25 °C for 120 min. The Relative HTRF value was read with BMG (PHERAstar FSX).

Bcl-2 and Mcl-1 = assay: Western blot of Bcl-2 and Mcl-1 in NIH-3T3 cells; format: cell-based; conditions: 1 µM
Protocol: Cells were lysed in cell lysis buffer (50 mM Tris pH 8.0, 150 mM NaCl, 10% glycerol, 1 mM EDTA, 50 mM NaF, and 0.1% NP-40) supplemented with protease and phosphatase inhibitors. Total protein extracts of tissues were generated in radioimmunoprecipitation (RIPA) assay lysis buffer containing complete protease and phosphatase inhibitor cocktail. Protein content was quantified using the Pierce BCA Protein Assay Kit (#23225, Thermo Fisher Scientific). The proteins were separated by SDS-PAGE, electrophoretically transferred to polyvinylidene difluoride (PVDF) blotting membranes (#LC2002, Thermo Fisher Scientific), and subjected to routine immunoblot analysis with primary antibodies as follows: anti-Bcl-2 (#15071), anti-Mcl-1 (#94296), anti-VHL (#68547), anti-CRBN (#71810), and anti-Sufu (#2522) were obtained from Cell Signaling Technology (Danvers, Massachusetts, USA); anti-Bcl-xL (#ab32370), anti-Gli1 (#ab134906), and anti-Smoothened (#ab236465) were obtained from Abcam (Cambridge, CB2 0AX, UK); anti-GAPDH (#60004-1-Ig) and anti-β-tubulin (#10094-1-AP) were purchased from Proteintech Group, Inc. (Rosemont, IL 60018, USA). The results were quantified by densitometry using ImageJ software (NIH).

Gli1 and Ptch1 mRNA = assay: RT-qPCR of Hh target genes in NIH-3T3 cells exposed to SAG; format: cell-based; conditions: 36 h
Protocol: Total RNA was extracted from cells or tissues using the NucleoSpin RNA kit (#740955.50, TaKaRa). RNA reverse transcriptions were performed with PrimeScript RT Reagent Kit with RNase inhibitor (#RR037B, TaKaRa). The quantitative PCR amplifications were performed in triplicate with TB Green Premix Ex Taq (Tli RNase H Plus) (#RR420A, TaKaRa) in an iCycler iQ system (Bio-Rad; Hercules, CA). Relative gene expression for interested genes was calculated using the 2^-ΔΔCt method and normalized to mGUSB expression. Primer sequences for RT-qPCR are as follows: mGli1 forward (5′-[…]-3′), reverse (5′-[…]-3′); mPtch1 forward (5′-[…]-3′), reverse (5′-[…]-3′); mGUSB forward (5′-[…]-3′), reverse (5′-[…]-3′).

Sufu/Gli1 interaction = assay: Co-immunoprecipitation of Sufu with Gli1 in NIH-3T3 cells; format: cell-based; conditions: 1 µM
Protocol: Cells were lysed in immunoprecipitation lysis buffer (#87787, Thermo Fisher Scientific) supplemented with protease and phosphatase inhibitor cocktail. Cell lysates were incubated with the indicated antibodies at 4 °C overnight, followed by incubation with Protein A/G Plus-Agarose beads (Santa Cruz Biotechnology) at 4 °C for 4 h. Immunoprecipitates were collected by centrifugation and washed three times with washing buffer. The complex was separated from the beads and then boiled for 10 min. The immunoprecipitates and inputs were analyzed by SDS-PAGE and immunoblot using the antibodies as indicated.

Gli1 = assay: Immunofluorescence staining of Gli1 in 293T cells transfected with Gli1; format: cell-based; conditions: 293T cells transfected with Gli1, 1 µM, 24 h
Protocol: Cells were fixed with 4% paraformaldehyde (PFA) for 15 min, permeabilized with 0.3% Triton X-100 in PBS for 10 min, and blocked with 1% BSA in PBS for 2 h. After that, the cells were further incubated with rabbit anti-Gli1 antibody (#101156-T10, SinoBiological) at 4 °C overnight. Then cells were stained with the Alexa Fluor®594-conjugated Goat Anti-rabbit IgG secondary antibody (red) for 1.5 h. Nuclei were counterstained with DAPI (blue). The immunofluorescent images of cells were captured under a fluorescence microscope (Leica).

[1] = tested on: Hh pathway (Gli-luciferase) provoked by Gli2; assay: Dual luciferase reporter assay, Hh activity initiated by ectopic Gli2-HA in light II cells; format: cell-based
From the text: The TCF/LEF luciferase reporter plasmid, NF-κB luciferase reporter plasmid, and TK-Renilla luciferase plasmid were purchased from Promega (Madison, WI, USA). Smo plasmid was purchased from Origene (Rockville, MD, USA). The Smo mutant plasmids were generated from wild type Smo plasmid using QuickChange Site-Directed Mutagenesis kit from Agilent (Santa Clara, CA, USA) and confirmed by sequencing. Information on Smo mutants plasmids is provided in Supplementary data 2. The Gli1 plasmid and Gli2-HA plasmid were obtained from Addgene (Cambridge, MA, USA). Transient transfections were performed by Lipofectamine 2000 reagent from Invitrogen (Grand Island, NY, USA) according to the manufacturer's instructions.
Cells seeded in 96-well plates were treated with various treatments as indicated. The luciferase activity in the cell lysates was measured using Dual-Luciferase Reporter Assay System (Promega, Madison, WI, USA) according to the manufacturer's instructions in a luminometer (Molecular Devices, Sunnyvale, CA). The firefly luciferase values were normalized to Renilla values.

[2] = tested on: SmoA1 (Smo W539L) medulloblastoma tumor; assay: SmoA1 medulloblastoma allograft in nude mice; format: in vivo, mouse
From the text: For in vivo SmoA1 MB allograft studies, SmoA1 spontaneous MB tumors were obtained from ND2:SmoA1 transgenic mice as previously described. Male nude mice (4 to 5 weeks of age) were purchased from Shanghai Lingchang Biotechnology Co. (Shanghai, China). Spontaneous tumors were harvested and subcutaneously allografted into nude mice. When the tumor volumes reached approximately 2000 mm^3, they were harvested and further subcutaneously allografted into nude mice. When the tumor volumes reached about 150 to 200 mm^3, the tumor-bearing mice were randomly assigned into vehicle and treatment groups. Mice were weighed every 3 days. Tumor size was measured once every 3 days using microcaliper. Tumor volume (V) was determined using the following formula: V = (L×W^2) ×0.5, where L is length, and W is width in mm. Tumor tissues were harvested 6 h after the last dosage to examining Gli1 mRNA expression and protein levels. SIAIS361034 for i.p. administration was formulated in 0.5% sodium carboxymethyl cellulose (CMC-Na). All in vivo studies above were approved by and conformed to the policies and regulations of the Animal Care and Use Committee of Fudan University, China.

[3] = tested on: bone growth of young mice; assay: Bone growth of young mice (body weight, Micro-CT, H&E, IHC); format: in vivo, mouse; conditions: 6-week-old mice treated P12 to P16

T1 sequence (Q07817 whole entry, species assumed): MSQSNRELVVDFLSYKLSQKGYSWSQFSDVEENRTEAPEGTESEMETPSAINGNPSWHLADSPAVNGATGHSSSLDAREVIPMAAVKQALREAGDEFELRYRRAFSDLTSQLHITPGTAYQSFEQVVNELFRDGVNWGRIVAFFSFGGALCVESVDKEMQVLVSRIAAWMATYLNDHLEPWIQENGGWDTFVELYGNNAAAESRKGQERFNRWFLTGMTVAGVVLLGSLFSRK
T1 sequence (Q96SW2 whole entry, species assumed): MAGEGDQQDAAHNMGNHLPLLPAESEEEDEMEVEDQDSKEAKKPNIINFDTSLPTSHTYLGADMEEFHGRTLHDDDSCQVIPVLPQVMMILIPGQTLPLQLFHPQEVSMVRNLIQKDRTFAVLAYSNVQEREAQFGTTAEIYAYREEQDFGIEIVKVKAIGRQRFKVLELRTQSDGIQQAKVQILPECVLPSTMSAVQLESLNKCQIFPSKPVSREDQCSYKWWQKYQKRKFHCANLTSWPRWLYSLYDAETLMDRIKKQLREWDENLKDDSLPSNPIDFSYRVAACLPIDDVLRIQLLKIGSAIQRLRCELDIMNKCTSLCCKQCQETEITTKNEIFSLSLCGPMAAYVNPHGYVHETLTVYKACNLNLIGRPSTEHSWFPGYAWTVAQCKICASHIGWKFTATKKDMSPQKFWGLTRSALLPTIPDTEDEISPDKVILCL

## CC1(C)CCC(c2ccc(Cl)cc2)=C(CN2CCN(c3ccc(C(=O)NS(=O)(=O)c4ccc(NCCCN5CCN(CCCC#Cc6cccc7c6CN(C6CCC(=O)NC6=O)C7=O)CC5)c(S(=O)(=O)C(F)(F)F)c4)cc3)CC2)C1 (stereo not drawn) [SIAIS361034]
Bcl-xL/CRBN
  Ternary complex formation with Bcl-xL and CRBN E3 ligase: could form a stable ternary complex
Bcl-2 and Mcl-1
  levels of Bcl-2 and Mcl-1: did not change the levels of Bcl-2 and Mcl-1
Gli1 and Ptch1 mRNA
  mRNA expression of Hh target genes Gli1 and Ptch1 activated by SAG: significantly blocked
Sufu/Gli1 interaction
  interaction of Sufu with Gli1: increased the interaction of Sufu with Gli1
Gli1
  translocation of Gli1 from cytoplasm into nucleus: suppressed translocation of Gli1 from cytoplasm into nucleus
[1]
  Hh activity evoked by ectopic expression of Gli2: significant potency
[1]; ectopic Gli2-HA, 36 h
  IC50: 85.1 nM
[2]; nude mice, SIAIS361034 50 mg/kg, day 15 (termination of the experiment)
  tumor inhibition ratio / mean tumor growth inhibition (TGI) ratio: 93.56%
[2]; nude mice, SIAIS361034 50 mg/kg, GDC-0449 50 mg/kg p.o.
  growth of SmoA1 tumors: remarkably suppressed
[2]; tumors harvested 6 h after the last dosage, RT-qPCR
  expression of Gli1 mRNA in tumor tissues: significantly inhibited
[2]; western blot at the end of the experiment
  Bcl-xL and Gli1 protein in harvested tumors: inducing Bcl-xL degradation and repressing Gli1 expression
[3]
  platelets and other indispensable blood cells at the end of the experiment: no side effects
